Patent US20140030368A1, “COMPOSITION FOR PREVENTING OR TREATING A RESPIRATORY DISEASE CONTAINING A MIXED HERBAL EXTRACT OF CNIDIUM OFFICINALE ROOT AND POLYGONI CUSPIDATI ROOT” (WHANIN PHARMACEUTICAL CO., LTD., priority 2011, published 2014)

Molecular target: T1, 5-lipoxygenase (Rattus norvegicus, UniProt P12527)
T1 construct: rat basophilic leukemia cells (RBL-1) were stabilized using serum-free RPMI medium; endogenous in cells; host or cells: RBL-1 (rat basophilic leukemia cells)
Assay: 5-Lipoxygenase inhibitory activity (leukotriene production in RBL-1 cells, cysteinyl leukotriene EIA)
Type: cell-based
Settings: 2 μM; RBL-1 cells; read-out: 5-lipoxygenase inhibition rate(%)
Description: Specifically, rat basophilic leukemia cells (RBL-1) were stabilized using serum-free RPMI medium at 37° C., and each of the extracts and arachidonic acid as a substrate were added thereto and incubated for 15 minutes to produce leukotriene. The amount of the produced leukotriene was measured using a cysteinyl leukotriene EIA kit. As comparative drugs, the 5-lipoxygenase inhibitors zileuton and montelukast were used.

T1 sequence (P12527 whole entry): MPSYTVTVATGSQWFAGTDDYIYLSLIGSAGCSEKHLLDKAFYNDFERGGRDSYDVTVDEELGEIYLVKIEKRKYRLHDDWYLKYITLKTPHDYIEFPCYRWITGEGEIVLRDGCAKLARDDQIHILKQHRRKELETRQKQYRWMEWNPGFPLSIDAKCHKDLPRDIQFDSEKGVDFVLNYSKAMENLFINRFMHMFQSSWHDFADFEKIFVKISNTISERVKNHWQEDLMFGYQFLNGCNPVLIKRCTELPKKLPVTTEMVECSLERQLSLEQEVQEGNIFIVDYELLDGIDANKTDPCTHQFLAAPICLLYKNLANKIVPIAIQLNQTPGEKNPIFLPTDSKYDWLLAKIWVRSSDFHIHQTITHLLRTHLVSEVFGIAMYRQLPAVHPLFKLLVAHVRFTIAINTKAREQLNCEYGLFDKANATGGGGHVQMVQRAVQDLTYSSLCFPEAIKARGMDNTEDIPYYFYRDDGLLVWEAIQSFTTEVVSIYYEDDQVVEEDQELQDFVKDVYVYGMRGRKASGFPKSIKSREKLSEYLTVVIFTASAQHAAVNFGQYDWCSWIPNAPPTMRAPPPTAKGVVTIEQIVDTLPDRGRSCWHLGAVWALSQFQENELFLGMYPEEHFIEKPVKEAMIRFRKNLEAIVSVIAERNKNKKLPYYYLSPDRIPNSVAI

With `CC(C)(O)c1ccccc1CC[C@@H](SCC1(CC(=O)O)CC1)c1cccc(/C=C/c2ccc3ccc(Cl)cc3n2)c1` [montelukast] the inhibition at 2 µM was 45%.
